Reference: patent publication US10898469B2, “Imidazolylamide derivative” (Sumitomo Dainippon Pharma Co., Ltd., priority 2016, dated 2021)
Counter-ions that a name gives are not always drawn.

Key:
Assay type in all cases: cell-based, human
[1] = test system: HCT-116 cells; assay: Inhibition test for sphere-forming ability of cancer cells (Test Example 1), HCT-116; conditions: for IC50: HCT-116 cells, concentration for 50% inhibition of cell proliferation, read-out: IC50 (μmol/L) HCT-116 (Sphere IC50 value); for inhibitory effect on the sphere-forming ability of cancer cells: Test Example 1, summary in words, cell line not given (HCT-116, HT-29, FaDu tested)
Outline: (§1)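 Sphere IC50 (μmol/L) derived from CellTiter-Glo luminescence after 4 days of compound treatment (final DMSO 0.1%). Non-adherent, serum-free culture of 350-800 cells/well in DMEM/F12 supplemented with 2% B27, EGF, bFGF and insulin assessed self-renewal.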

[2] = test system: HT-29 cells; assay: Inhibition test for sphere-forming ability of cancer cells (Test Example 1), HT-29; conditions: concentration for 50% inhibition of cell proliferation, read-out: IC50 (μmol/L) HT-29 (Sphere IC50 value)
Outline: as §1

[3] = test system: FaDu cells; assay: Inhibition test for sphere-forming ability of cancer cells (Test Example 1), FaDu; conditions: concentration for 50% inhibition of cell proliferation, read-out: IC50 (μmol/L) FaDu (Sphere IC50 value)
Outline: as §1

[4] = test system: FaDu cells; assay: Inhibition test for sphere-forming ability of cancer cells in the presence of BSA (Test Example 2), FaDu; conditions: in the presence of 5% BSA, cultured 4 days
Experimental: (§2) Human colorectal cancer-derived HCT-116 cells, human colon-adenocarcinoma-derived HT-29 cells, and human pharyngeal cancer-derived FaDu cells were available from American Type Culture Collection (ATCC). HCT-116 cells and HT-29 cells were cultured at 37° C. under 5% CO2 using the McCoy's 5a medium containing 10% fetal bovine serum (FBS) and 1% penicillin/streptomycin, and FaDu cells were cultured at 37° C. under 5% CO2 using the MEM medium containing 10% FBS, 1% non-essential amino acid, 1% sodium pyruvate, 5% bovine serum albumin (BSA), and 1% penicillin/streptomycin. HCT-116 cells, HT-29 cells, and FaDu cells were seeded in a 384 Well Black Clear Bottom Ultra-Low Attachment Microplate (Corning Cat. No. 3827) in an amount of 350-800 cells/well using the DMEM/F12 medium containing 2% B27 supplement (GIBCO), 20 ng/mL epidermal growth factor (EGF) (peprotech), 10 ng/mL basic fibroblast growth factor (bFGF) (peprotech), 5 μg/mL insulin (Sigma), 5% bovine serum albumin (BSA), and 1% penicillin/streptomycin. Each test compound was added into each well to adjust the final concentration of DMSO to 0.1%, and the cells were cultured for 4 days. The number of viable cells in each well was then measured with CellTiter-Glo® Luminescent Cell Viability Assay (Promega) to calculate the concentration of each test compound for 50% inhibition of cell proliferation (Sphere IC50 value; μmol/L).
(§3) The experiment of Test Example 2 was performed for each compound of each Example.
(§4) The concentration of each test compound for 50% inhibition of cell proliferation (Sphere IC50 value; μmol/L) is shown in the following Table.

[5] = test system: HCT-116 cells; assay: Inhibition test for sphere-forming ability of cancer cells in the presence of BSA (Test Example 2), HCT-116; conditions: for IC50: HCT-116 cells, in the presence of 5% BSA, cultured 4 days; for inhibitory effect on the sphere-forming ability of cancer cells: Test Example 2, in the presence of 5% BSA, summary in words, cell line not given (HCT-116, HT-29, FaDu tested)
Experimental: as §2, §3, §4

[6] = test system: HT-29 cells; assay: Inhibition test for sphere-forming ability of cancer cells in the presence of BSA (Test Example 2), HT-29; conditions: in the presence of 5% BSA, cultured 4 days
Experimental: as §2, §3, §4

SMILES | IC50 ([1]; Homo sapiens) [µmol/L] | IC50 ([2]; Homo sapiens) [µmol/L] | IC50 ([3]; Homo sapiens) [µmol/L] | IC50 ([4]; Homo sapiens, 96 h) [µM] | IC50 ([5]; Homo sapiens, HCT-116, 96 h) [µM] | IC50 ([6]; Homo sapiens, 96 h) [µM] | inhibitory effect on the sphere-forming ability of cancer cells [1] | inhibitory effect on the sphere-forming ability of cancer cells [5] | IC50 [1] [µmol/L] | IC50 [2] [µmol/L] | IC50 [3] [µmol/L] | IC50 [4] [µM] | IC50 [5] [µM] | IC50 [6] [µM]
CC(=O)Nc1ccc(/C=C/C(=O)Nc2cn(Cc3cccc(C(F)(F)F)c3)cn2)cc1 [Example 8, (2E)-3-[4-(acetylamino)phenyl]-N-{1-[3-(trifluoromethyl)benzyl]-1H-imidazol-4-yl}prop-2-enamide] | 0.31 | 0.05 | 0.06 | 0.07 | 0.63 | 0.37 | particularly potent inhibitory effect | particularly potent inhibitory effect |  |  |  |  |  | 
CC(=O)Nc1ccc(/C=C/C(=O)Nc2cn(Cc3cccc(OC(F)(F)F)c3)cn2)cc1 [Example 10, (2E)-3-[4-(acetylamino)phenyl]-N-{1-[3-(trifluoromethoxy)benzyl]-1H-imidazol-4-yl}prop-2-enamide] | 0.63 | 0.07 | 0.07 | 0.28 | 0.83 | 0.55 |  |  |  |  |  |  |  | 
CC(=O)Nc1ccc(/C=C/C(=O)Nc2cn(Cc3cc(F)c(F)c(F)c3)cn2)cc1 [Example 11, (2E)-3-[4-(acetylamino)phenyl]-N-[1-(3,4,5-trifluorobenzyl)-1H-imidazol-4-yl]prop-2-enamide] | < 0.01 | 0.08 | 0.08 | 0.06 | 0.26 | 0.07 | particularly potent inhibitory effect | particularly potent inhibitory effect |  |  |  |  |  | 
O=C(/C=C/c1ccc(NCC(F)(F)F)nc1)Nc1cn(Cc2cccc(Cl)c2)cn1 [Example 15] |  |  |  |  |  |  | particularly potent inhibitory effect | particularly potent inhibitory effect | < 0.01 | 0.06 | 0.07 | 0.06 | 0.08 | 0.06
CNc1ccc(/C=C/C(=O)Nc2cn(Cc3cccc(Cl)c3)cn2)cn1 [Example 16] |  |  |  |  |  |  | particularly potent inhibitory effect | particularly potent inhibitory effect | 0.31 | 0.06 | 0.08 | 0.07 | 0.64 | 0.5
CNc1ccc(/C=C/C(=O)Nc2cn(Cc3cccc(C(F)(F)F)c3)cn2)cn1 [Example 17] |  |  |  |  |  |  | particularly potent inhibitory effect | particularly potent inhibitory effect | 0.08 | 0.04 | 0.08 | 0.05 | 0.64 | 0.35
CCNc1ccc(/C=C/C(=O)Nc2cn(Cc3cccc(Cl)c3)cn2)cn1 [Example 18] |  |  |  |  |  |  | particularly potent inhibitory effect | particularly potent inhibitory effect | 0.07 | 0.02 | 0.06 | 0.03 | 0.58 | 0.05
N#Cc1ccc(/C=C/C(=O)Nc2cn(Cc3cccc(Cl)c3)cn2)cc1OCCO [Example 35, (2E)-N-[1-(3-chlorobenzyl)-1H-imidazol-4-yl]-3-[4-cyano-3-(2-hydroxyethoxy)phenyl]prop-2-enamide] | 0.08 | 0.07 | 0.08 | 0.06 | 0.72 | 0.54 | particularly potent inhibitory effect |  |  |  |  |  |  | 
Cl.O=C(/C=C/c1ccc(F)c(O)c1)Nc1cn(Cc2cccc(C(F)(F)F)c2)cn1 [Example 37, (E)-3-(4-Fluoro-3-hydroxyphenyl)-N-(1-(3-(trifluoromethyl)benzyl)-1H-imidazol-4-yl)acrylamide Hydrochloride] | 0.25 | 0.93 | < 0.01 | < 0.01 | 0.55 | 0.1 | particularly potent inhibitory effect | particularly potent inhibitory effect |  |  |  |  |  | 
Cl.O=C(/C=C/c1ccc(F)c(O)c1)Nc1cn(Cc2cccc(Cl)c2)cn1 [Example 38] | 0.15 | 0.89 | < 0.01 | 0.03 | 0.72 | 0.58 | particularly potent inhibitory effect |  |  |  |  |  |  | 

The next lines start with results.

IC50 ([1]; Homo sapiens) [µmol/L] | IC50 ([2]; Homo sapiens) [µmol/L] | IC50 ([3]; Homo sapiens) [µmol/L] | IC50 ([4]; Homo sapiens, 96 h) [µM] | IC50 ([5]; Homo sapiens, HCT-116, 96 h) [µM] | IC50 ([6]; Homo sapiens, 96 h) [µM] | SMILES | inhibitory effect on the sphere-forming ability of cancer cells [1] | inhibitory effect on the sphere-forming ability of cancer cells [5] | IC50 [1] [µmol/L] | IC50 [2] [µmol/L] | IC50 [3] [µmol/L] | IC50 [4] [µM] | IC50 [5] [µM] | IC50 [6] [µM]
0.06 | < 0.01 | 0.04 | 0.06 | 0.36 | 0.06 | O=C(/C=C/c1ccc(NCC(F)F)nc1)Nc1cn(Cc2cccc(Cl)c2)cn1 [Example 14, (E)-N-(1-(3-Chlorobenzyl)-1H-imidazol-4-yl)-3-(6-((2,2-difluoroethyl)amino)pyridin-3-yl)acrylamide] | particularly potent inhibitory effect | particularly potent inhibitory effect |  |  |  |  |  | 
0.06 | 0.07 | 0.06 | 0.03 | 0.06 | 0.06 | COc1ccc(/C=C/C(=O)Nc2cn(Cc3cc(F)c(F)c(F)c3)cn2)cc1OCCO [Example 32, (E)-3-(3-(2-Hydroxyethoxy)-4-methoxyphenyl)-N-(1-(3,4,5-trifluorobenzyl)-1H-imidazol-4-yl)acrylamide] | particularly potent inhibitory effect | particularly potent inhibitory effect |  |  |  |  |  | 
0.09 | 0.06 | 0.09 | 0.07 | 0.63 | 0.58 | COc1ccc(/C=C/C(=O)Nc2cn(Cc3cccc(C(F)(F)F)c3)cn2)cc1OCCO [Example 34, (2E)-3-[3-(2-hydroxyethoxy)-4-methoxyphenyl]-N-{1[3-(trifluoromethyl)benzyl]-1H-imidazol-4-yl}prop-2-enamide] | particularly potent inhibitory effect | particularly potent inhibitory effect |  |  |  |  |  | 
0.08 | 0.06 | 0.08 | 0.06 | 0.69 | 0.52 | N#Cc1ccc(/C=C/C(=O)Nc2cn(Cc3cccc(C(F)(F)F)c3)cn2)cc1OCCO [Example 36, (E)-3-(4-Cyano-3-(2-hydroxyethoxy)phenyl)-N-(1-(3-(trifluoromethyl)benzyl)-1H-imidazol-4-yl)acrylamide] | particularly potent inhibitory effect | particularly potent inhibitory effect |  |  |  |  |  | 
0.42 | 0.45 | 0.07 | 0.58 | 6.86 | 2.71 | O=C(/C=C/c1ccc(F)c(OCCO)c1)Nc1cn(Cc2cccc(C(F)(F)F)c2)cn1 [Example 39, (E)-3-(4-Fluoro-3-(2-hydroxyethoxy)phenyl)-N-(1-(3-(trifluoromethyl)benzyl)-1H-imidazol-4-yl)acrylamide Hydrochloride] |  |  |  |  |  |  |  | 
0.48 | 0.18 | 0.05 | 0.58 | 7.45 | 3.33 | O=C(/C=C/c1ccc(F)c(OCCO)c1)Nc1cn(Cc2cccc(Cl)c2)cn1 [Example 40] |  |  |  |  |  |  |  | 
